Source: patent publication US8217055B2, “Pyrido-pyrazine derivatives useful as herbicidal compounds” (Syngenta Crop Protection LLC, priority 2006, dated 2012)

Legend:
Assay type in all cases: in vivo
[1] = system: test plants (a variety of test species); test: Example B2 herbicidal action, post-emergence, pots in glasshouse, evaluated after 13 days (score 10=total damage to plant; 0=no damage to plant); settings: same protocol as Example B2 (post-emergence, evaluated after 13 days)
Procedure: Seeds of a variety of test species were sown in standard soil in pots. After 8 days cultivation (post-emergence) under controlled conditions in a glasshouse (at 24/16° C., day/night; 14 hours light; 65% humidity), the plants were sprayed with an aqueous spray solution derived from the formulation of the technical active ingredient in acetone/water (50:50) solution containing 0.5% Tween 20 (polyoxyethelyene sorbitan monolaurate, CAS RN 9005-64-5). The test plants were then grown in a glasshouse under controlled conditions in a glasshouse (at 24/16° C., day/night; 14 hours light; 65% humidity) and watered twice daily. After 13 days, the test was evaluated (10=total damage to plant; 0=no damage to plant).

test plants = test: Example B1 herbicidal action, post-emergence, all test plants together; settings: same protocol as Example B1 (post-emergence, 1000 g/ha, 9 days)
Procedure: (§1) Seeds of a variety of test species were sown in sterilised standard soil in seed trays each having 96 cells. After cultivation for 8 to 9 days cultivation (post-emergence) under controlled conditions in a climatic chamber (cultivation at 23/17° C., day/night; 13 hours light; 50-60% humidity), the plants were treated with an aqueous spray solution of 1000 mg/l of the active ingredient dissolved in 10% DMSO (dimethyl sulfoxide, CAS RN 67-68-5) as a solvent, equivalent to 1000 g/ha. The plants were grown in the climatic chamber after application at (24/19° C., day/night; 13 hours light; 50-60% humidity) and watered twice daily. After 9 days until the test was evaluated (10=total damage to plant, 0=no damage to plant)

Chenopodium album = test: Example B3 herbicidal action, post-emergence, small pots in glasshouse (score 10=total damage to plant, 0=no damage to plant); settings: Application post-emergence, 1000 g/ha, evaluated after 13 days
Procedure: (§2) Seeds of a variety of test species were sown in sterilised compost in small pots. After cultivation for seven days (post-emergence) in controlled conditions in the glasshouse (at 24/16° C., day/night; 14 hours light; 65% humidity) the plants were sprayed with 1 mg of the active ingredient, formulated in 2.5 ml acetone/water (50:50) solution, which is equivalent to 1000 g/ha. Once the foliage was dry, the pots were kept in the glasshouse (at 24/16° C., day/night; 14 hours light; 65% humidity), and were watered twice daily. After 13 days the test was evaluated (10=total damage to plant, 0=no damage to plant).

Digitaria sanguinalis = test: as above; settings: Application post-emergence, 1000 g/ha, evaluated after 13 days
Procedure: as §2

Amaranthus retroflexus [2] = test: as above; settings: Application post-emergence, 1000 g/ha, evaluated after 13 days
Procedure: as §2

Alopecurus myosuroides = test: as above; settings: Application post-emergence, 1000 g/ha, evaluated after 13 days
Procedure: as §2

Solanum nigrum = test: Example B1 herbicidal action, post-emergence, seed trays in climatic chamber (score 10=total damage to plant, 0=no damage to plant); settings: Application post-emergence, 1000 g/ha, evaluated after 9 days
Procedure: as §1

Nasturtium officinale = test: as above; settings: Application post-emergence, 1000 g/ha, evaluated after 9 days
Procedure: as §1

Stellaria media = test: as above; settings: Application post-emergence, 1000 g/ha, evaluated after 9 days
Procedure: as §1

Amaranthus retroflexus [3] = test: as above; settings: Application post-emergence, 1000 g/ha, evaluated after 9 days
Procedure: as §1

**Q.** Which “damage to the test plants” value [1] does the source give for `Cc1cnc2c(OC(=O)C(C)(C)C)c(-c3c(F)ccc(F)c3Cl)c(=O)n(CC(F)F)c2n1` [A30] here?
**A.** no damage or very little damage

**Q.** For `CC(C)(C)C(=O)Oc1c(-c2ccccc2OC(F)(F)F)c(=O)n(CCCCCl)c2nccnc12` [C1], which “damage to the test plants” value (test plants) is on record?
**A.** no damage or very little damage

**Q.** For `CC(C)(C)C(=O)Oc1c(-c2c(F)ccc(F)c2Cl)c(=O)n(CCCCl)c2nccnc12` [C5], which “damage to the test plants” value (test plants) is on record?
**A.** no damage or very little damage

**Q.** For `CC(C)(C)C(=O)Oc1c(-c2c(F)ccc(F)c2Cl)c(=O)n(CC(F)F)c2ncc(-c3ccccc3)nc12` [A31], which “damage to the test plants” value [1] is on record?
**A.** no damage or very little damage

**Q.** Which results are given for `CC(C)C(=O)Oc1c(-c2cccc(C(F)(F)F)c2Cl)c(=O)n(CC(F)F)c2nccnc12` [A4]?
**A.** CHEAL (damage to plant) (Chenopodium album): 10; DIGSA (damage to plant) (Digitaria sanguinalis): 7; AMARE (damage to plant) (Amaranthus retroflexus [2]): 10; ALOMY (damage to plant) (Alopecurus myosuroides): 0

**Q.** `CC(C)(C)C(=O)Oc1c(-c2ccccc2OC(F)(F)F)c(=O)n(CCC(F)(F)C(F)(F)F)c2nccnc12` [C3] was tested. Which “damage to the test plants” value (test plants) did it give?
**A.** no damage or very little damage

**Q.** How did the “CHEAL (damage to plant)” value (Chenopodium album) turn out when `CC(C)(C)C(=O)Oc1c(-c2ccccc2I)c(=O)n(CC(F)F)c2nccnc12` [A36] was run?
**A.** 10

**Q.** And the “DIGSA (damage to plant)” value (Digitaria sanguinalis)?
**A.** 5

**Q.** What about the “AMARE (damage to plant)” value (Amaranthus retroflexus [2]) of the same compound?
**A.** 10

**Q.** What about the “ALOMY (damage to plant)” value (Alopecurus myosuroides) of the same compound?
**A.** 8

**Q.** With `CC(C)(C)C(=O)Oc1c(-c2c(F)ccc(F)c2Cl)c(=O)n(CC(F)F)c2nccnc12` [A2, 2,2-dimethyl-propionic acid 7-(2-chloro-3,6-difluoro-phenyl)-5-(2,2-difluoro-ethyl)-6-oxo-5,6-dihydro-pyrido[2,3-b]pyrazin-8-yl ester] as the compound, how does the “SOLNI (damage to plant)” value (Solanum nigrum) read?
**A.** 6

**Q.** And the “NAAOF (damage to plant)” value (Nasturtium officinale)?
**A.** 9

**Q.** What about the “STEME (damage to plant)” value (Stellaria media) of the same compound?
**A.** 9

**Q.** What about the “AMARE (damage to plant)” value (Amaranthus retroflexus [3]) of the same compound?
**A.** 4

**Q.** How did the “damage to the test plants” value [1] turn out when `Cc1cnc2c(n1)c(OC(=O)C(C)(C)C)c(-c1c(F)ccc(F)c1Cl)c(=O)n2CC(F)F` [A29] was run?
**A.** no damage or very little damage

**Q.** For `CC(C)(C)C(=O)Oc1c(-c2ccccc2OC(F)(F)F)c(=O)n(CCC(F)(F)F)c2nccnc12` [C2], which “SOLNI (damage to plant)” value (Solanum nigrum) is on record?
**A.** 4

**Q.** And the “NAAOF (damage to plant)” value (Nasturtium officinale)?
**A.** 0

**Q.** What about the “STEME (damage to plant)” value (Stellaria media) of the same compound?
**A.** 0

**Q.** And the “AMARE (damage to plant)” value (Amaranthus retroflexus [3])?
**A.** 0
